Paper PMC10882491 (Chemical Science, 2024)
One block for each molecule: values may come before it.

Assays:
[1] = biological target: PIP4K2C (Homo sapiens, UniProt Q8TBX8); experiment: NanoBRET target engagement in living HEK293 cells; type: cell-based
[2] = biological target: T1, AURKA (Homo sapiens, UniProt O14965); experiment: single-temperature TPP with PRM-MS in K562 lysate; type: cell-based
T1 sequence (O14965 1-403): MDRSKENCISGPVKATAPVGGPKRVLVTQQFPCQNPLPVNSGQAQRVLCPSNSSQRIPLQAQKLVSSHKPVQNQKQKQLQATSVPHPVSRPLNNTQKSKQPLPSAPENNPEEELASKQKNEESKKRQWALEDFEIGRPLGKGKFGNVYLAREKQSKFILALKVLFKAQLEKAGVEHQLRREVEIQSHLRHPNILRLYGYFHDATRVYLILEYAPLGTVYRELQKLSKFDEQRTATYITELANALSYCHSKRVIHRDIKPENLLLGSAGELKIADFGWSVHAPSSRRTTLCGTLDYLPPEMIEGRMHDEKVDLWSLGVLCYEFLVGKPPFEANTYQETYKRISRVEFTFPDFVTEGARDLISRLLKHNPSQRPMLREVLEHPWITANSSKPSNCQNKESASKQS

[3] = biological target: T2, GRK2 (Homo sapiens, UniProt P25098); experiment: western blot CETSA, isothermal dose-response at […] °C; type: biochemical
T2 sequence (P25098 1-689): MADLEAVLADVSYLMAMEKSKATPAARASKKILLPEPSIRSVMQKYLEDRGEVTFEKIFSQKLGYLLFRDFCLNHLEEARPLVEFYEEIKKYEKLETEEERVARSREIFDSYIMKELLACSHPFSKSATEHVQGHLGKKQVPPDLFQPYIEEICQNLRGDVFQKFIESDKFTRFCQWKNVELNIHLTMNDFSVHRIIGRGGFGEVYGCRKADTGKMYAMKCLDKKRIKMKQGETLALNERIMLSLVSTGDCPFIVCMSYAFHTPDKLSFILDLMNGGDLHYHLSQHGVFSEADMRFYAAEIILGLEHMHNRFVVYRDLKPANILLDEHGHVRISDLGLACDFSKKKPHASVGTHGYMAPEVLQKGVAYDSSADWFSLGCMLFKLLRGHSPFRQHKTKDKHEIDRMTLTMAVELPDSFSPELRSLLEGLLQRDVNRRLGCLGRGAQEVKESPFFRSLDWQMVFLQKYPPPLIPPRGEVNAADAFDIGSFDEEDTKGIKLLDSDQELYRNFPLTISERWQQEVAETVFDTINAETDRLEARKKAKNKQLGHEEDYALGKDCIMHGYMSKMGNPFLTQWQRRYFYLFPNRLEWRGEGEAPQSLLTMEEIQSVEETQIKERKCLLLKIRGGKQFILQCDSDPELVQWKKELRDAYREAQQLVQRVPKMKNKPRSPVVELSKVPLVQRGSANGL

PIP4K2C, sequence (Q8TBX8 2-421): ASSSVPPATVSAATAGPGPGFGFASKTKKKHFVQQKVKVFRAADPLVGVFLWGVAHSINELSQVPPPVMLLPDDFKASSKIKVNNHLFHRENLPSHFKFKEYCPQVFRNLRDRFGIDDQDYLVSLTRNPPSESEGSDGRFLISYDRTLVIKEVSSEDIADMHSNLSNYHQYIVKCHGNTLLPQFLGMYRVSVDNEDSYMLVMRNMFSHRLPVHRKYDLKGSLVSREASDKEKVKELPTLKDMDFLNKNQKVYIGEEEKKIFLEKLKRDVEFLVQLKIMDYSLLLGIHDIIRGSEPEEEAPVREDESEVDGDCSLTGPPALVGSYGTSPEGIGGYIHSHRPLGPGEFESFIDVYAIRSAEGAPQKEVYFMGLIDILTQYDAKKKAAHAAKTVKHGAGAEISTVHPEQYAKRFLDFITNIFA

IC50 [1]: 0.25 µM
SMILES: NC(=O)c1nc(Nc2ccccc2)sc1NC(=O)C1CCCCC1 [UNC3230]

SMILES: COc1cc(Nc2ncc3c(n2)-c2ccc(Cl)cc2C(c2c(F)cccc2OC)=NC3)ccc1C(=O)O [alisertib]
single-temperature TPP with PRM-MS in K562 lysate [2]: PRM data confirmed that all of these targets exhibit significantly higher abundance in the drug treatment groups

IC50 [3]: 6.7 µM
SMILES: Cc1nc2ccc(CN(C)c3ccc(C(=O)N[C@@H](CCC(=O)O)C(=O)O)s3)cc2c(=O)[nH]1 [raltitrexed]
